This is an account of results in patent US12448373B2, “Azetidinyl-acetamides as CXCR7 inhibitors” (CHEMOCENTRYX, INC., priority 2021, dated 2025).

A value given as a limit tells only on which side of the number the result lay.

T1 sequence (P25106 whole entry): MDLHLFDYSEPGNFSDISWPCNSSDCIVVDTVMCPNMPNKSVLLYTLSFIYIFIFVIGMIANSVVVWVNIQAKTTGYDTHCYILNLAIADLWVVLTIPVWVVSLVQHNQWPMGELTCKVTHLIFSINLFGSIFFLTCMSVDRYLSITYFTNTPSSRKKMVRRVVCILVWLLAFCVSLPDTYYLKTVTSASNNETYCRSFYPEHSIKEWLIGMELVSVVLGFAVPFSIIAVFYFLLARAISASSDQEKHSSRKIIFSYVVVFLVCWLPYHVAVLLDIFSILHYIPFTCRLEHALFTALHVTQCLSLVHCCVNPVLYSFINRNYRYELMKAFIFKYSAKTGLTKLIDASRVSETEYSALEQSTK

This assay concerns the target T1, CXCR7 (Homo sapiens, UniProt P25106).
T1 construct: expressed in transfected cells; host or cells: CHO cells (CHO-CXCR7), transgenes maintained with Hygromycin B and G418
The experiment in a line: CXCR7 β-arrestin recruitment assay in CHO-CXCR7 cells (ProLink/EA β-galactosidase complementation), induced by human SDF-1a. The format is cell-based. Particulars: assay buffer, SDF-1a at EC50 concentration. As for the experimental part:
CXCR7 is fused in frame with a small enzyme donor fragment ProLink and co-expressed in CHO cells stably expressing a fusion protein of β-arrestin and the larger, N-terminal deletion mutant of β-galactosidase (called enzyme acceptor or EA). Activation of the CXCR7 stimulates binding of β-arrestin to the ProLink-tagged CXCR7 and forces complementation of the two enzyme fragments, resulting in the formation of an active β-galactosidase enzyme. The β-galactosidase enzyme activity is measured with a substrate that generates fluorescence.
CHO-CXCR7 cells (0.22×10^6/mL) were cultured in growth medium (Ham's F-12 medium with 10% fetal bovine serum (FBS)), Hygromycin B (200 ug/mL) and G418 (250 ug/mL) were used to maintain the transgenes. The day before the assay, the cells were detached from culture dishes with 0.25% trypsin-EDTA (Corning, Catalog No. 25-053-CI), plated into 96 well plate (2.2×10^5 cells/mL, 100 μL/well) and incubated overnight at 37° C. with 5% CO2. On the day of the assay, cell culture medium was removed and 100 uL of assay buffer (PBS or FBS) was added to each well. 1 μL of compound that were serially diluted in DMSO was added to each well. 5 μL of human SDF-la (Pepro Tech, Catalog No. 300-28A, at EC50 concentration pre-determined on the same day) was then added and mixed to induce CXCR7-mediated β-arrestin recruitment. The plates were incubated for 1.5 hours at 37° C. The assay buffer was removed, 100 μL substrate solution was added and the reaction was carried out at 37° C. for 30 minutes. The substrate solution was prepared by mixing 100 mL Phosphate Buffer (1M, Sigma, Catalog No. P3619-1GA), 100 mL 10% Triton X 100 (Sigma, Catalog No. T8787.), 5 mL MgCl2 (1M, Sigma, Catalog No. M1028), 1.5 mL, β-mercaptoethanol (Gibco, Catalog No. 21985-023.). 3-carboxyumbelliferyl β-D-galactopyranoside (ThermoFisher Scientific, Catalo No. F2905) was added at 0.4 mM right before use. The reaction was then stopped by adding 50 μL of Stop Solution (2.1% w/v Na2CO3) to each well. Fluorescence intensity was measured with a FlexStation 3 microplate reader (Molecular Devices) with the following setting—excitation: 360 nm, emission: 465 nm, manual Gain: 55. IC50 values were calculated with GraphPad Prism using 3 parameter nonlinear regression.
As a reminder, the IC50 is the concentration needed to halve the response being measured. A lower IC50 goes with greater potency in that assay. In turn, `CC(C)(NC(=O)CC1(NC(=O)c2nnc(-c3ccc(F)cc3F)s2)CN([C@H]2CC[C@](C)(O)CC2)C1)c1cc(F)ccc1F` [Example 1.024] gave an IC50 of 0.005 to 0.1 µM.

On to `CC(C)(NC(=O)CC1(NC(=O)c2nnc(-c3ccc(F)cc3F)s2)CN([C@H]2CC[C@](C)(O)CC2)C1)c1cccc(C#N)c1` [Example 1.025], for which the IC50 lay in the range of 0.005 to 0.1 µM.

On to `Cc1cccc(C(C)(C)NC(=O)CC2(NC(=O)c3cc(-c4ccc(F)cc4F)on3)CN(CC(C)C)C2)n1` [Example 1.026], for which the IC50 lay within 0.005 to 0.1 µM.

Take `Cc1cccc(C(C)(C)NC(=O)CC2(NC(=O)c3nnc(-c4ccc(F)cc4F)s3)CN(CC(C)C)C2)n1` [Example 1.027]: the IC50 was 0.005 to 0.1 µM.

For `CC(C)(NC(=O)CC1(NC(=O)c2nnc(-c3ccc(F)cc3F)s2)CN([C@H]2CC[C@](C)(O)CC2)C1)c1cc(F)cc(F)c1` [Example 1.028], the IC50 fell in the range of 0.005 to 0.1 µM.

In turn, `CC(C)(NC(=O)CC1(NC(=O)c2cc(-c3ccc(F)cc3F)on2)CN(CC2CCCC2)C1)c1ccccn1` [Example 1.029] returned an IC50 of 0.005 to 0.1 µM.

`Cc1cc(C)nc(C(C)(C)NC(=O)CC2(NC(=O)c3nnc(-c4ccc(F)cc4F)s3)CN(CC3CC3)C2)n1` [Example 1.030] showed an IC50 of 0.005 to 0.1 µM.

Regarding `Cc1cc(C)nc(C(C)(C)NC(=O)CC2(NC(=O)c3nnc(-c4ccc(F)cc4F)s3)CN([C@H]3CC[C@](C)(O)CC3)C2)c1` [Example 1.031], the IC50 is < 0.005 µM.

`Cc1cccc(C(C)(C)NC(=O)CC2(NC(=O)c3nnc(-c4ccc(F)cc4F)s3)CN([C@H]3CC[C@](C)(O)CC3)C2)n1` [Example 1.032]: the concentration for half-maximal inhibition (IC50) is < 0.005 µM.

For the compound `CC(C)(NC(=O)CC1(NC(=O)c2nnc(-c3ccc(F)cc3F)s2)CN([C@H]2CC[C@](C)(O)CC2)C1)c1ncccn1` [Example 1.033], the IC50 lay within 0.005 to 0.1 µM.

`CC(C)(NC(=O)CC1(NC(=O)c2cc(-c3ccc(F)cc3F)on2)CN([C@H]2CC[C@@](C)(O)CC2)C1)c1ccccn1` [Example 1.034] gave an IC50 of 0.1 to 1 µM.

The compound `CC(C)(NC(=O)CC1(NC(=O)c2cc(-c3ccc(F)cc3F)on2)CN([C@H]2CC[C@](C)(O)CC2)C1)c1ccccn1` [Example 1.035] had an IC50 of 0.005 to 0.1 µM.

`CC(C)CN1CC(CC(=O)NC(C)(C)c2cc(F)cc(F)c2)(NC(=O)c2cc(-c3ccc(F)cc3F)on2)C1` [Example 1.036] yielded an IC50 of 0.005 to 0.1 µM.

In the case of `Cc1cc(C)nc(C(C)(C)NC(=O)CC2(NC(=O)c3cc(-c4ccc(F)cc4F)on3)CN(CC(C)C)C2)n1` [Example 1.037], the IC50 lay within 0.005 to 0.1 µM.

The compound `CC(C)(NC(=O)CC1(NC(=O)c2nnc(-c3ccc(F)cc3F)s2)CN(CC2CC2)C1)c1cccc(Cl)c1` [Example 1.038] had an IC50 of 0.005 to 0.1 µM.

`Cc1cc(C)nc(C(C)(C)NC(=O)CC2(NC(=O)c3nnc(-c4ccc(F)cc4F)s3)CN(CC(C)C)C2)n1` [Example 1.039] displayed an IC50 of 0.005 to 0.1 µM.

For the compound `CC(C)CN1CC(CC(=O)NC(C)(C)c2cccc(Cl)c2)(NC(=O)c2nnc(-c3ccc(F)cc3F)s2)C1` [Example 1.040], the IC50 lay in the range of 0.005 to 0.1 µM.

Consider `Cc1ccnc(C(C)(C)NC(=O)CC2(NC(=O)c3nnc(-c4ccc(F)cc4F)s3)CN([C@H]3CC[C@](C)(O)CC3)C2)n1` [Example 1.041], for which the IC50 was in the range of 0.005 to 0.1 µM.

As to `CC(C)(NC(=O)CC1(NC(=O)c2nnc(-c3ccc(F)cc3F)s2)CN([C@H]2CC[C@](C)(O)CC2)C1)c1cccc(F)c1` [Example 1.042], the IC50 is < 0.005 µM.

As for `CC(C)(NC(=O)CC1(NC(=O)c2cc(-c3ccc(F)cc3F)sn2)CN([C@H]2CC[C@@](C)(O)CC2)C1)c1cccc(Cl)c1` [Example 1.043], the IC50 lay within 0.1 to 1 µM.

`CC(C)(NC(=O)CC1(NC(=O)c2cc(-c3ccc(F)cc3F)sn2)CN([C@H]2CC[C@](C)(O)CC2)C1)c1cccc(Cl)c1` [Example 1.044] returned an IC50 of 0.1 to 1 µM.

`CC(C)(NC(=O)CC1(NC(=O)c2ncc(-c3ccc(F)cc3F)s2)CN([C@H]2CC[C@@](C)(O)CC2)C1)c1cccc(Cl)c1` [Example 1.045] displayed an IC50 of 0.005 to 0.1 µM.

The compound `CC(C)(NC(=O)CC1(NC(=O)c2ncc(-c3ccc(F)cc3F)s2)CN([C@H]2CC[C@](C)(O)CC2)C1)c1cccc(Cl)c1` [Example 1.046] displayed an IC50 of 0.005 to 0.1 µM.

Compound `CC(C)(NC(=O)CC1(NC(=O)c2cc(-c3ccc(F)cc3F)no2)CN([C@H]2CC[C@@](C)(O)CC2)C1)c1cccc(Cl)c1` [Example 1.047] gave an IC50 of 0.005 to 0.1 µM.

For the compound `CC(C)(NC(=O)CC1(NC(=O)c2cc(-c3ccc(F)cc3F)no2)CN([C@H]2CC[C@](C)(O)CC2)C1)c1cccc(Cl)c1` [Example 1.048], the half-inhibitory concentration (IC50) was < 0.005 µM.

Consider `CC(C)(NC(=O)CC1(NC(=O)c2cnn(-c3ccc(F)cc3F)c2)CN([C@H]2CC[C@](C)(O)CC2)C1)c1cccc(Cl)c1` [Example 1.049], for which the IC50 was 1 to 20 µM.

`CC(C)(NC(=O)CC1(NC(=O)c2csc(-c3ccc(F)cc3F)n2)CN([C@H]2CC[C@@](C)(O)CC2)C1)c1cccc(Cl)c1` [Example 1.050] showed an IC50 of 1 to 20 µM.

Regarding `CC(C)(NC(=O)CC1(NC(=O)c2csc(-c3ccc(F)cc3F)n2)CN([C@H]2CC[C@](C)(O)CC2)C1)c1cccc(Cl)c1` [Example 1.051], the IC50 lay within 1 to 20 µM.

As to `Cc1cc(C)nc(C(C)(C)NC(=O)CC2(NC(=O)c3cc(-c4ccc(F)cc4F)n[nH]3)CN([C@H]3CC[C@@](C)(O)CC3)C2)n1` [Example 1.052], the IC50 fell in the range of 1 to 20 µM.

Consider `CC(C)(NC(=O)CC1(NC(=O)c2cc(-c3ccc(F)cc3F)n[nH]2)CN([C@H]2CC[C@@](C)(O)CC2)C1)c1cccc(Cl)c1` [Example 1.053], for which the IC50 lay within 1 to 20 µM.

As to `CC(C)(NC(=O)CC1(NC(=O)c2cc(-c3ccc(F)cc3F)n[nH]2)CN([C@H]2CC[C@](C)(O)CC2)C1)c1cccc(Cl)c1` [Example 1.054], the 50% inhibitory concentration (IC50) lay in the range of 1 to 20 µM.

`Cc1cc(C)nc(C(C)(C)NC(=O)CC2(NC(=O)c3nnc(-c4ccc(F)cc4F)o3)CN([C@H]3CC[C@](C)(O)CC3)C2)n1` [Example 1.055] showed an IC50 of 0.1 to 1 µM.

Compound `CC(C)(NC(=O)CC1(NC(=O)c2ccn(-c3ccc(F)cc3F)n2)CN([C@H]2CC[C@](C)(O)CC2)C1)c1cccc(Cl)c1` [Example 1.056] came in with an IC50 of 1 to 20 µM.

Take `Cc1cc(C)nc(C(C)(C)NC(=O)CC2(NC(=O)c3nnc(-c4ccc(F)cc4F)o3)CN([C@H]3CC[C@@](C)(O)CC3)C2)n1` [Example 1.057]: the IC50 was 0.1 to 1 µM.

On to `Cn1nc(-c2ccc(F)cc2F)cc1C(=O)NC1(CC(=O)NC(C)(C)c2cccc(Cl)c2)CN([C@H]2CC[C@@](C)(O)CC2)C1` [Example 1.058], for which the 50% inhibitory concentration (IC50) was in the range of 1 to 20 µM.

In the case of `Cn1nc(-c2ccc(F)cc2F)cc1C(=O)NC1(CC(=O)NC(C)(C)c2cccc(Cl)c2)CN([C@H]2CC[C@](C)(O)CC2)C1` [Example 1.059], the IC50 lay within 1 to 20 µM.

Consider `Cc1cc(C)nc(C(C)(C)NC(=O)CC2(NC(=O)c3nnc(-c4ccc(F)cc4F)s3)CN([C@H]3CC[C@@](C)(O)CC3)C2)n1` [Example 1.060], for which the IC50 is 0.005 to 0.1 µM.

With `Cc1cc(C)nc(C(C)(C)NC(=O)CC2(NC(=O)c3nnc(-c4ccc(F)cc4F)s3)CN([C@H]3CC[C@](C)(O)CC3)C2)n1` [Example 1.061], the IC50 was < 0.005 µM.

In turn, `CC(C)(NC(=O)CC1(NC(=O)c2nnc(-c3ccc(F)cc3F)s2)CN([C@H]2CC[C@@](C)(O)CC2)C1)c1ccccn1` [Example 1.062] had an IC50 of 0.005 to 0.1 µM.

`CC(C)(NC(=O)CC1(NC(=O)c2nnc(-c3ccc(F)cc3F)s2)CN([C@H]2CC[C@](C)(O)CC2)C1)c1ccccn1` [Example 1.063] had an IC50 of 0.005 to 0.1 µM.
